From patent US20120094998A1, “Oligomer-Protein Tyrosine Kinase Inhibitor Conjugates” (Nektar Therapeutics, priority 2009, published 2012)
Converted amounts (≈) assume the structure as drawn.

How the values were obtained:
ABL = ABL (Homo sapiens, UniProt P00519); experiment: Off-chip mobility-shift kinase assay (Caliper LABCHIP), ABL; conditions: for ABL AVG % Activity at 1.0E−06: concentration 1.0E−06; for ABL AVG % Activity at 1.0E−06 / ABL AVG % Activity at 1.0E−07 / ABL AVG % Activity at 1.0E−08 / ABL AVG % Activity at 1.0E−09 / ABL AVG % Activity at 1.0E−10 / ABL AVG % Activity at 3.0E−06 / ABL AVG % Activity at 3.0E−07 / ABL AVG % Activity at 3.0E−08 / ABL AVG % Activity at 3.0E−09 / ABL AVG % Activity at 3.0E−10: imatinib-corresponding compounds; for ABL AVG % Activity at 1.0E−07: concentration 1.0E−07; for ABL AVG % Activity at 1.0E−08: concentration 1.0E−08; for ABL AVG % Activity at 1.0E−09: concentration 1.0E−09; for ABL AVG % Activity at 1.0E−10: concentration 1.0E−10; for ABL AVG % Activity at 3.0E−06: concentration 3.0E−06; for ABL AVG % Activity at 3.0E−07: concentration 3.0E−07; for ABL AVG % Activity at 3.0E−08: concentration 3.0E−08; for ABL AVG % Activity at 3.0E−09: concentration 3.0E−09; for ABL AVG % Activity at 3.0E−10: concentration 3.0E−10
[1] = Caco-2 permeability (bi-directional; pH 7.4/pH 7.4); assay type: in vitro ADME; conditions: human; for Papp A→B at 120 min, 10 μM: Caco-2, pH 7.4, read-out: Permeability (cm^2/s × 10^6); for efflux ratio at 120 min, 10 μM: Caco-2, ratio of B-A and A-B permeabilities
Experimental: Caco-2 cells are used as an in vitro model of the human intestinal epithelium and permit assessment of the intestinal permeability of potential drugs. Test compound is added to either the apical or basolateral side of a confluent monolayer of Caco-2 cells and permeability is measured by monitoring the appearance of the test compound on the opposite side of the membrane using LC-MS/MS. Apparent permeability (Papp) coefficients, efflux ratio for the test compound and recovery values were determined.
To measure the permeability of test compound in the apical to basolateral (A-B) and basolateral to apical (B-A) direction across Caco-2 cells.
Caco-2 cells obtained from the ATCC are used between passage numbers 40-60. Cells are seeded on to Millipore Multiscreen Caco-2 plates at 1×10^5 cells/cm^2. They are cultured for 20 days in DMEM and media is changed every two or three days. On day 20 the permeability study is performed.
On day 20, the monolayers are prepared by rinsing both basolateral and apical surfaces twice with HBSS at 37° C. Cells are then incubated with HBSS in both apical and basolateral compartments for 40 min to stabilize physiological parameters. HBSS is then removed from the apical compartment and replaced with test compound dosing solutions. […] The fluorescent integrity marker lucifer yellow is also included in the dosing solution. Analytical standards are made from dosing solutions. The apical compartment inserts are then placed into ‘companion’ plates containing fresh HBSS. For basolateral to apical (B-A) permeability determination the experiment is initiated by replacing buffer in the inserts then placing them in companion plates containing dosing solutions. At 120 minutes the companion plate is removed and apical and basolateral samples diluted for analysis by LC-MS/MS. Test compound permeability was assessed in duplicate. On each plate, compounds of known permeability characteristics were run as controls.
Test and control compounds were quantified by LC-MS/MS cassette analysis using a 5-point calibration with appropriate dilution of the samples. Cyprotex generic analytical conditions were used. The starting concentration (C0) and experimental recovery were calculated from both apical and basolateral compartment concentrations.
The integrity of the monolayers throughout the experiment was checked by monitoring lucifer yellow permeation using fluorimetric analysis. Lucifer yellow permeation is low if monolayers have not been damaged. […] If lucifer yellow Papp values are above QC limits in both replicate wells for a test compound, the compound was re-tested.
Data Analysis: The permeability coefficient for each compound (Papp) is calculated from the following equation: […]
wherein dQ/dt is the rate of permeation of the drug across the cells, C0 is the donor compartment concentration at time zero and A is the area of the cell monolayer. C0 is obtained from analysis of donor and receiver compartments at the end of the incubation period. It is assumed that all of the test compound measured after 120 minutes incubation was initially present in the donor compartment at 0 minutes. An efflux ratio (ER) is derived as follows:
Talinolol (a known P-gp substrate) is also included as a control compound to assess whether functional P-gp is present in the Caco-2 cell monolayer.

PDGFRβ = PDGFRβ (Homo sapiens, UniProt P09619); experiment: Off-chip mobility-shift kinase assay (Caliper LABCHIP), PDGFR; conditions: for PDGFR AVG % Activity at 1.0E−06: concentration 1.0E−06; for PDGFR AVG % Activity at 1.0E−07: concentration 1.0E−07; for PDGFR AVG % Activity at 1.0E−08: concentration 1.0E−08; for PDGFR AVG % Activity at 1.0E−09: concentration 1.0E−09; for PDGFR AVG % Activity at 1.0E−10: concentration 1.0E−10; for PDGFR AVG % Activity at 3.0E−06: concentration 3.0E−06; for PDGFR AVG % Activity at 3.0E−07: concentration 3.0E−07; for PDGFR AVG % Activity at 3.0E−08: concentration 3.0E−08; for PDGFR AVG % Activity at 3.0E−09: concentration 3.0E−09; for PDGFR AVG % Activity at 3.0E−10: concentration 3.0E−10
cKIT = cKIT (Homo sapiens, UniProt P10721); experiment: Off-chip mobility-shift kinase assay (Caliper LABCHIP), C-kit; conditions: for C-kit AVG % Activity at 1.0E−05: concentration 1.0E−05; for C-kit AVG % Activity at 1.0E−06: concentration 1.0E−06; for C-kit AVG % Activity at 1.0E−07: concentration 1.0E−07; for C-kit AVG % Activity at 1.0E−08: concentration 1.0E−08; for C-kit AVG % Activity at 3.0E−05: concentration 3.0E−05; for C-kit AVG % Activity at 3.0E−06: concentration 3.0E−06; for C-kit AVG % Activity at 3.0E−07: concentration 3.0E−07; for C-kit AVG % Activity at 3.0E−08: concentration 3.0E−08; for C-kit AVG % Activity at 3.0E−09: concentration 3.0E−09
Thermodynamic solubility = assay type: physicochemical; conditions: aqueous buffer, thermodynamic from solid; phosphate buffered saline, pH 7.4; ambient temperature overnight
Experimental: Test compound (2.5 mg of solid; n=1) is weighed in a clear glass vial and buffer (0.5 mL) is added (phosphate buffered saline, pH 7.4). The solution is agitated at ambient temperature overnight using a vial roller system. […] Duplicate aliquots (50 μL) are sampled from the filtrate and diluted with one volume of 0.1 N hydrochloric acid and methanol (1:1 v/v) before analysis by HPLC-UV. […] The concentration of test compound in the filtrate is quantified relative to the concentration standard.
Analysis is performed using a gradient HPLC-UV system with a total cycle time of six minutes.

Chain of PDGFRβ (P09619 33-1106): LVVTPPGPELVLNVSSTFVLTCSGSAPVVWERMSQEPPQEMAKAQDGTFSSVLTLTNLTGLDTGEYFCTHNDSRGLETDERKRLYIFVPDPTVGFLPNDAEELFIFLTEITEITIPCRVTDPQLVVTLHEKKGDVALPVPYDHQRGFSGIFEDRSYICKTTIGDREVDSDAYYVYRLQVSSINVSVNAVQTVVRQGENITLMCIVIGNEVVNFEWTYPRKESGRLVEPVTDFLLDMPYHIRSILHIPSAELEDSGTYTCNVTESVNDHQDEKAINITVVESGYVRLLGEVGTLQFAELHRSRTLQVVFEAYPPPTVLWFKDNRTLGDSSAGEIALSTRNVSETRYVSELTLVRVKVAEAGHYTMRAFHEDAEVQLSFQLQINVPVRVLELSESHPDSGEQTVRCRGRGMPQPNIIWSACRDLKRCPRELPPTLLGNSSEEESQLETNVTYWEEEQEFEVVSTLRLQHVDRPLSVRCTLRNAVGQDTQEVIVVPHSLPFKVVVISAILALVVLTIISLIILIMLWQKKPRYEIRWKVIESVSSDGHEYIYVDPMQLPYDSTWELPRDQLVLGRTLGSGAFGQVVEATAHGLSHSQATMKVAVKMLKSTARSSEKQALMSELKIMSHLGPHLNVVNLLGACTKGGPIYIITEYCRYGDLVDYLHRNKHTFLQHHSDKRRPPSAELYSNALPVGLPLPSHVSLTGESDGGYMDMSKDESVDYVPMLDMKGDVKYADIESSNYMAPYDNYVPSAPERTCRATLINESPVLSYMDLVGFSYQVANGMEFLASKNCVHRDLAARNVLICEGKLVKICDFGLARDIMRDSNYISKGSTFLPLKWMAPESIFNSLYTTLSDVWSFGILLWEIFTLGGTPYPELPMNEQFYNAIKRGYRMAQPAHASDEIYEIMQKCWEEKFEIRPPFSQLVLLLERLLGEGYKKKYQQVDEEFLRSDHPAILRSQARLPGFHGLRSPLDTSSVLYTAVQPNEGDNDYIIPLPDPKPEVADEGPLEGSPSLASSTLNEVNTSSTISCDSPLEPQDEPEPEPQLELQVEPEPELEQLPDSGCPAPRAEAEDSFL
Chain of ABL (P00519 whole entry): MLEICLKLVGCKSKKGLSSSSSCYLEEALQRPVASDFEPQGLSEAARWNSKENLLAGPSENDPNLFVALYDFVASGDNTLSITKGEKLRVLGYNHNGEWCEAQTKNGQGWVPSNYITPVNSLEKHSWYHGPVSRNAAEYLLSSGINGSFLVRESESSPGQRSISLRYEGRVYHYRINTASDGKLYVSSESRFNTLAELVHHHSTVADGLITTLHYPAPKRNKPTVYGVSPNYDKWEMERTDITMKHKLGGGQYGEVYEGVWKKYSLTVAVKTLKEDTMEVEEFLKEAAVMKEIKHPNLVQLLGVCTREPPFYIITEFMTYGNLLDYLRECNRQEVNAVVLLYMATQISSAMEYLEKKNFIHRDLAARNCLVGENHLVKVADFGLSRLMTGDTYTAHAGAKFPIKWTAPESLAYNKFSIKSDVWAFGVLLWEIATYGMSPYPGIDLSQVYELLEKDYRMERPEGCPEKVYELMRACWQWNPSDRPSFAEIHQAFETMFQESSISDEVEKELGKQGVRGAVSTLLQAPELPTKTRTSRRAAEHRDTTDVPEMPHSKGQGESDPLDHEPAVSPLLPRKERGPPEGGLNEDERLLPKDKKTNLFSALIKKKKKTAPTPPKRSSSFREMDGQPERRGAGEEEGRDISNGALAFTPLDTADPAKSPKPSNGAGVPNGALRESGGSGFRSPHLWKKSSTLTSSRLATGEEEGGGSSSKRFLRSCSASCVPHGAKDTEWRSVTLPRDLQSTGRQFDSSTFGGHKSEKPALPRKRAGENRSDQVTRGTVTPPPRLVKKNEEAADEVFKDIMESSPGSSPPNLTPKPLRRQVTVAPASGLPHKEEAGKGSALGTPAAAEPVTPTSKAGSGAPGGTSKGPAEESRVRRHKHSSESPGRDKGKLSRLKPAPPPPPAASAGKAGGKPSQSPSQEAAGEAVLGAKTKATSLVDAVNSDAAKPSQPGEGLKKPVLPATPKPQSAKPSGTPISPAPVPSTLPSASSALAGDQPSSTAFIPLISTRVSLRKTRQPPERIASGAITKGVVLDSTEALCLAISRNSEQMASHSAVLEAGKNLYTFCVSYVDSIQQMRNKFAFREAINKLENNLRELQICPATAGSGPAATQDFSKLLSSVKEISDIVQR
Chain of cKIT (P10721 26-976): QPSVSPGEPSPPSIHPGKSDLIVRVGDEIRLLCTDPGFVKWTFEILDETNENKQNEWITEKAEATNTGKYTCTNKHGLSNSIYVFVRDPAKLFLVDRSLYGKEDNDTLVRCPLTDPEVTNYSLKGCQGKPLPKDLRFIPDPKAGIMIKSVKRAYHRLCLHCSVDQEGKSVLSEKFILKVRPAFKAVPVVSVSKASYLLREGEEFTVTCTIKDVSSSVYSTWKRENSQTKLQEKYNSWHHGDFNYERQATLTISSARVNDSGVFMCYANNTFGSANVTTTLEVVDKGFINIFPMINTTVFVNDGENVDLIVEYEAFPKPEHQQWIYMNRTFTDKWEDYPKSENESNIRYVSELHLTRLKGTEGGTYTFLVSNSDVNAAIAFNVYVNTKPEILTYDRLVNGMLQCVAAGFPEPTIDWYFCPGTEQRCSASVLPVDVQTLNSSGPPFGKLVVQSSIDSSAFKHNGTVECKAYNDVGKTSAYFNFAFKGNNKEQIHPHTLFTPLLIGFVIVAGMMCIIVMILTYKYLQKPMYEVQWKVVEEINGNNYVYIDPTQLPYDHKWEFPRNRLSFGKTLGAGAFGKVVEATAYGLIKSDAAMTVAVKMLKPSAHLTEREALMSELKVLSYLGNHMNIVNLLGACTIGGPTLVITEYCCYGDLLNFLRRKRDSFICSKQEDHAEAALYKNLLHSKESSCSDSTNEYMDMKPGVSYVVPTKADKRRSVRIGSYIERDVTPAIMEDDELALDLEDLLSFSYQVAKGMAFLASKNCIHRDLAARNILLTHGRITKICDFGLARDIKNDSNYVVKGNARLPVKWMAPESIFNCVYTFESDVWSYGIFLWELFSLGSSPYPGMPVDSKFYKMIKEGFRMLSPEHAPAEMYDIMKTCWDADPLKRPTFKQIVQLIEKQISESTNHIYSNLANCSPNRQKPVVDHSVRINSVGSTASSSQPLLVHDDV

| SMILES | IC50 (ABL) [nM] | ABL AVG % Activity at 1.0E−06 (ABL) [%] | ABL AVG % Activity at 1.0E−07 (ABL) [%] | ABL AVG % Activity at 1.0E−08 (ABL) [%] | ABL AVG % Activity at 1.0E−09 (ABL) [%] | ABL AVG % Activity at 1.0E−10 (ABL) [%] | ABL AVG % Activity at 3.0E−06 (ABL) [%] | ABL AVG % Activity at 3.0E−07 (ABL) [%] | ABL AVG % Activity at 3.0E−08 (ABL) [%] | ABL AVG % Activity at 3.0E−09 (ABL) [%] | ABL AVG % Activity at 3.0E−10 (ABL) [%] | Papp A→B at 120 min, 10 μM [1] [×10⁻⁶ cm/s] | efflux ratio at 120 min, 10 μM [1] | IC50 (PDGFRβ) [nM] | PDGFR AVG % Activity at 1.0E−06 (PDGFRβ) [%] | PDGFR AVG % Activity at 1.0E−07 (PDGFRβ) [%] | PDGFR AVG % Activity at 1.0E−08 (PDGFRβ) [%] | PDGFR AVG % Activity at 1.0E−09 (PDGFRβ) [%] | PDGFR AVG % Activity at 1.0E−10 (PDGFRβ) [%] | PDGFR AVG % Activity at 3.0E−06 (PDGFRβ) [%] | further results |
| --- | --- | --- | --- | --- | --- | --- | --- | --- | --- | --- | --- | --- | --- | --- | --- | --- | --- | --- | --- | --- | --- |
| COCCOCCOCCOCCOCCNCc1ccc(C(=O)Nc2ccc(C)c(Nc3nccc(-c4cccnc4)n3)c2)cc1 [mPEG5-N-Imatinib] | ≥ 3000 | 74 | 86 | 95 | 97 | 96 | 66 | 80 | 92 | 96 | 96 | 0.05 ± 0.02 | 560 | 220 | 9 | 62 | 94 | 90 | 92 | 0 | PDGFR AVG % Activity at 3.0E−07 (PDGFRβ): 37%; PDGFR AVG % Activity at 3.0E−08 (PDGFRβ): 85%; PDGFR AVG % Activity at 3.0E−09 (PDGFRβ): 100%; PDGFR AVG % Activity at 3.0E−10 (PDGFRβ): 92%; IC50 (cKIT): 440 nM; C-kit AVG % Activity at 1.0E−05 (cKIT): 1%; C-kit AVG % Activity at 1.0E−06 (cKIT): 28%; C-kit AVG % Activity at 1.0E−07 (cKIT): 82%; C-kit AVG % Activity at 1.0E−08 (cKIT): 92%; C-kit AVG % Activity at 3.0E−05 (cKIT): 0%; C-kit AVG % Activity at 3.0E−06 (cKIT): 9%; C-kit AVG % Activity at 3.0E−07 (cKIT): 59%; C-kit AVG % Activity at 3.0E−08 (cKIT): 91%; C-kit AVG % Activity at 3.0E−09 (cKIT): 96%; solubility (Thermodynamic solubility): 3400 µg/mL (≈ 5.27 mM) |
| COCCOCCOCCOCCOCCOCCOCCN1CCN(Cc2ccc(C(=O)Nc3ccc(C)c(Nc4nccc(-c5cccnc5)n4)c3)cc2)CC1 [mPEG7-N′-Imatinib] | ≥ 3000 | 69 | 83 | 92 | 96 | 96 | 52 | 78 | 88 | 96 | 97 | 0.3 ± 0.01 | 75.7 | 310 | 18 | 76 | 91 | 98 | 95 | 0 | PDGFR AVG % Activity at 3.0E−07 (PDGFRβ): 43%; PDGFR AVG % Activity at 3.0E−08 (PDGFRβ): 91%; PDGFR AVG % Activity at 3.0E−09 (PDGFRβ): 93%; PDGFR AVG % Activity at 3.0E−10 (PDGFRβ): 100%; IC50 (cKIT): 2500 nM; C-kit AVG % Activity at 1.0E−05 (cKIT): 16%; C-kit AVG % Activity at 1.0E−06 (cKIT): 69%; C-kit AVG % Activity at 1.0E−07 (cKIT): 91%; C-kit AVG % Activity at 1.0E−08 (cKIT): 95%; C-kit AVG % Activity at 3.0E−05 (cKIT): 4%; C-kit AVG % Activity at 3.0E−06 (cKIT): 44%; C-kit AVG % Activity at 3.0E−07 (cKIT): 84%; C-kit AVG % Activity at 3.0E−08 (cKIT): 97%; C-kit AVG % Activity at 3.0E−09 (cKIT): 95%; solubility (Thermodynamic solubility): 3000 µg/mL (≈ 3.74 mM) |
| COCCOCCOCCOCCOCCOCCOCCOCCOCCNCc1ccc(C(=O)Nc2ccc(C)c(Nc3nccc(-c4cccnc4)n3)c2)cc1 [mPEG9-N-Imatinib] | ≥ 3000 | 77 | 89 | 97 | 96 | 96 | 70 | 85 | 93 | 96 | 96 | 0.01 ± 0.004 | 482 | 290 | 11 | 65 | 83 | 78 | 89 | 0 | PDGFR AVG % Activity at 3.0E−07 (PDGFRβ): 38%; PDGFR AVG % Activity at 3.0E−08 (PDGFRβ): 75%; PDGFR AVG % Activity at 3.0E−09 (PDGFRβ): 100%; PDGFR AVG % Activity at 3.0E−10 (PDGFRβ): 86%; IC50 (cKIT): 1600 nM; C-kit AVG % Activity at 1.0E−05 (cKIT): 9%; C-kit AVG % Activity at 1.0E−06 (cKIT): 62%; C-kit AVG % Activity at 1.0E−07 (cKIT): 93%; C-kit AVG % Activity at 1.0E−08 (cKIT): 98%; C-kit AVG % Activity at 3.0E−05 (cKIT): 2%; C-kit AVG % Activity at 3.0E−06 (cKIT): 32%; C-kit AVG % Activity at 3.0E−07 (cKIT): 81%; C-kit AVG % Activity at 3.0E−08 (cKIT): 99%; C-kit AVG % Activity at 3.0E−09 (cKIT): 99%; solubility (Thermodynamic solubility): 2700 µg/mL (≈ 3.29 mM) |
